The source made the active and inactive calls.
Experiments:
[1] = cytotoxicity toward NIH3T3 fibroblasts, dose response, counter-screen, cell-based, ATP luminescence, mouse fibroblasts (AID 2010); type: functional;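 further: cells exposed to compound for about 90 hours before reading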
[2] = Luminescence Cell-Based Dose Response HTS to Identify Inhibitors of 5'UTR Stem-Loop Driven Prion Protein mRNA Translation in H4 Neuroglioblastoma Cells. [Related pubchem assays: 1827 (Project Summary), 1813 (Primary HTS)]; type: functional
[3] = inhibitors of SNCA 5'UTR-driven reporter translation, confirmation, H4 neuroglioma cells, luminescence (AID 1988); type: functional, cell-based
Paired box protein Pax-8 = Paired box protein Pax-8 (Homo sapiens, UniProt Q06710); test: inhibitors of PAX8-driven TPO luciferase reporter, dose response, RMG-I cells, cherry-pick (AID 687027); type: functional, cell-based;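 further: luciferase reporter driven by Pax8 target thyroperoxidase promoter measured by SteadyGlo luminescence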
Chain of Paired box protein Pax-8 (Q06710 whole entry): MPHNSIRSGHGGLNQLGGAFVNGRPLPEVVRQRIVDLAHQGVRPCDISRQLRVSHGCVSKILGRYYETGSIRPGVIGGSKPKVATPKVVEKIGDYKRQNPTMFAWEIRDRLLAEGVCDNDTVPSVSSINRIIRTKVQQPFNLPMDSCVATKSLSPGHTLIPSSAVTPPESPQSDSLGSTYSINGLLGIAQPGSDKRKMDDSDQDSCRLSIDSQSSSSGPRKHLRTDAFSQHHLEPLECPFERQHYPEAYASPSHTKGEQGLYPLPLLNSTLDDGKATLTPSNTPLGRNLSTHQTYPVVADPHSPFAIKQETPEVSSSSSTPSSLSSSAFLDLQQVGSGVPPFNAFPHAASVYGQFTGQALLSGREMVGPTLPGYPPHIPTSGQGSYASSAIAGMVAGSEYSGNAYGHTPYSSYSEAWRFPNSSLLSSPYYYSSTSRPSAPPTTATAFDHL

cells [4] = type: functional, cell-based
[5] = inhibitors of firefly luciferase expression or activity, dose response, H4 neuroglioma cells, luminescence (AID 1990); type: functional, cell-based
[6] = luciferase reporter signal reduction – luminescence, H4-C neuroglioblastoma cells, dose response (AID 2458); type: functional, cell-based;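 further: H4 neuroglioblastoma cells stably carrying a luciferase reporter gene fusion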
[7] = inhibitors of SNCA 5'UTR-driven translation, confirmation, luminescence, H4 neuroglioblastoma cells, dose confirmation (AID 2454); type: functional, cell-based;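 further: H4 neuroglioblastoma cells carrying an alpha-synuclein 5'UTR luciferase reporter; potency for inhibition of the luciferase signal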
[8] = inhibitors of intracellular T. cruzi replication, confirmation, NIH3T3 host cells, beta-gal luminescence (AID 2044); type: functional, cell-based;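 further: intracellular parasites grown in NIH/3T3 mouse fibroblasts as host cells; luminescent beta-galactosidase reporter signal from transgenic T. cruzi replicating inside host cells; inhibitors lower the luminescence signal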
[9] = molecular target: T1, Alkaline phosphatase, tissue-nonspecific isozyme (Homo sapiens, UniProt P05186)
T1 sequence (P05186 whole entry): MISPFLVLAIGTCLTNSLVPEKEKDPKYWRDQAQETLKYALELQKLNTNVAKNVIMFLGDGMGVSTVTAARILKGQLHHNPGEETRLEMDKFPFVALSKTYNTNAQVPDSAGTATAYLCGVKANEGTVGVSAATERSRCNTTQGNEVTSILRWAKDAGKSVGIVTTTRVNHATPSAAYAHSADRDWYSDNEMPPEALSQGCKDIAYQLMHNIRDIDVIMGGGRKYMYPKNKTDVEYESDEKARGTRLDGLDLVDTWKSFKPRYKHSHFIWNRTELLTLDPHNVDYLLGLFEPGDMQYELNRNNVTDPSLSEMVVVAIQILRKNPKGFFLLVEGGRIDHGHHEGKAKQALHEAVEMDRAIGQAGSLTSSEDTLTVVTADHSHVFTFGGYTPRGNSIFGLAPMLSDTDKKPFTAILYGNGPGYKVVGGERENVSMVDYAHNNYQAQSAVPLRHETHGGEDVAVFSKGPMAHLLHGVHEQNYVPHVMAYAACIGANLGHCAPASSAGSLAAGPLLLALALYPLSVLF

cells [10] = test: cells
Cytochrome P450 2C19 = Cytochrome P450 2C19 (Homo sapiens, UniProt P33261); test: Cytochrome panel assay with activity outcomes. Panel member name: p450-cyp2c19 Compounds with AC50 equal or less than 10 uM are considered active; type: functional; details: read-out: AC50
Chain of Cytochrome P450 2C19 (P33261 whole entry): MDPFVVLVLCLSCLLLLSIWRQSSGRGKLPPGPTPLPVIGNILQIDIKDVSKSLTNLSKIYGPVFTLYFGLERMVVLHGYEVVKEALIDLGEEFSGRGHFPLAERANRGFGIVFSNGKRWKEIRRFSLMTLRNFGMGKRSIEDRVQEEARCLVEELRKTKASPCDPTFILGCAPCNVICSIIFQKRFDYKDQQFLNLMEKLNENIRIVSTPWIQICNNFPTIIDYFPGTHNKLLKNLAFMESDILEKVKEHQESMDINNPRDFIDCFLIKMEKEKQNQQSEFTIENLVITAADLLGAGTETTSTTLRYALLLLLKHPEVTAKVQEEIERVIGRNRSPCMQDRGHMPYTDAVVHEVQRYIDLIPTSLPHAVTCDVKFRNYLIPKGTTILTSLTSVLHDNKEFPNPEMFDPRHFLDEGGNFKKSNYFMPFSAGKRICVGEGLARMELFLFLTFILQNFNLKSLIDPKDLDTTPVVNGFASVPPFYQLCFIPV

Major prion protein = Major prion protein (Homo sapiens, UniProt P04156); type: functional, cell-based
[11] = molecular target: Peroxisome proliferator-activated receptor gamma/Nuclear receptor corepressor 2 (Homo sapiens, UniProt P37231+Q9Y618); type: functional
[12] = molecular target: Photoreceptor-specific nuclear receptor (Homo sapiens, UniProt Q9Y5X4); type: functional;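 further: potency for compounds that break the NR2E3 corepressor complex and count as activators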
Chain of Photoreceptor-specific nuclear receptor (Q9Y5X4 whole entry): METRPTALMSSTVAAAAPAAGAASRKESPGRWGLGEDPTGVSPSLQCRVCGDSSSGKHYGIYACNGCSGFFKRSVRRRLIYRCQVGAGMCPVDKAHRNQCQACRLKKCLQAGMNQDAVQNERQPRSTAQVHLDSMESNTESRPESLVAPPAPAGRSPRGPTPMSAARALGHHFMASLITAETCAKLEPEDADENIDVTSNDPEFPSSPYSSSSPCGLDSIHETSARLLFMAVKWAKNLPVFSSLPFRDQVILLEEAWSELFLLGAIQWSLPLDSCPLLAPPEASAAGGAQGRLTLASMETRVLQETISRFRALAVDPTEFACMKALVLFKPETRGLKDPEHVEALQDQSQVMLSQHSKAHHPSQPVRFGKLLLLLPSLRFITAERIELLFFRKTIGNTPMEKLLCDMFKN

INS1 = test: beta cell apoptosis inhibitors, cytokine rescue, dose response, luminescence, retest (AID 449756); type: functional, cell-based; details: Rattus norvegicus;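 further: cell death triggered by IL-1 beta plus TNF-alpha plus IFN-gamma mixture; protective hits raise ATP signal compared with cytokine alone wells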
[13] = molecular target: Sphingosine 1-phosphate receptor 1 (Homo sapiens, UniProt P21453); type: functional;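 further: Tango beta-arrestin reporter U2OS cells stimulated with S1P near its EC80; inhibitor potency meaning antagonism of receptor activation by the natural agonist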
Chain of Sphingosine 1-phosphate receptor 1 (P21453 whole entry): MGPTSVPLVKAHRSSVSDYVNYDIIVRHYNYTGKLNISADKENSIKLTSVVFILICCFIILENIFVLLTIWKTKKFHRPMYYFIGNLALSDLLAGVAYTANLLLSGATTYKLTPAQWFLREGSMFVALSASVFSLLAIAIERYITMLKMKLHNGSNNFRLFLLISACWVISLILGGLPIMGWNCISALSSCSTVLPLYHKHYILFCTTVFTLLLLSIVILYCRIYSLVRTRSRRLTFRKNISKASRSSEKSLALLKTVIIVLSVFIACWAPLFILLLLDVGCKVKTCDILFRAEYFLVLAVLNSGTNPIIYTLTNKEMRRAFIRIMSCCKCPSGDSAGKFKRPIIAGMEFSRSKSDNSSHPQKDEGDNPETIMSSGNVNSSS

Beta-galactosidase = Beta-galactosidase (Escherichia coli, UniProt Q8VNN2); type: functional
Chain of Beta-galactosidase (Q8VNN2 whole entry): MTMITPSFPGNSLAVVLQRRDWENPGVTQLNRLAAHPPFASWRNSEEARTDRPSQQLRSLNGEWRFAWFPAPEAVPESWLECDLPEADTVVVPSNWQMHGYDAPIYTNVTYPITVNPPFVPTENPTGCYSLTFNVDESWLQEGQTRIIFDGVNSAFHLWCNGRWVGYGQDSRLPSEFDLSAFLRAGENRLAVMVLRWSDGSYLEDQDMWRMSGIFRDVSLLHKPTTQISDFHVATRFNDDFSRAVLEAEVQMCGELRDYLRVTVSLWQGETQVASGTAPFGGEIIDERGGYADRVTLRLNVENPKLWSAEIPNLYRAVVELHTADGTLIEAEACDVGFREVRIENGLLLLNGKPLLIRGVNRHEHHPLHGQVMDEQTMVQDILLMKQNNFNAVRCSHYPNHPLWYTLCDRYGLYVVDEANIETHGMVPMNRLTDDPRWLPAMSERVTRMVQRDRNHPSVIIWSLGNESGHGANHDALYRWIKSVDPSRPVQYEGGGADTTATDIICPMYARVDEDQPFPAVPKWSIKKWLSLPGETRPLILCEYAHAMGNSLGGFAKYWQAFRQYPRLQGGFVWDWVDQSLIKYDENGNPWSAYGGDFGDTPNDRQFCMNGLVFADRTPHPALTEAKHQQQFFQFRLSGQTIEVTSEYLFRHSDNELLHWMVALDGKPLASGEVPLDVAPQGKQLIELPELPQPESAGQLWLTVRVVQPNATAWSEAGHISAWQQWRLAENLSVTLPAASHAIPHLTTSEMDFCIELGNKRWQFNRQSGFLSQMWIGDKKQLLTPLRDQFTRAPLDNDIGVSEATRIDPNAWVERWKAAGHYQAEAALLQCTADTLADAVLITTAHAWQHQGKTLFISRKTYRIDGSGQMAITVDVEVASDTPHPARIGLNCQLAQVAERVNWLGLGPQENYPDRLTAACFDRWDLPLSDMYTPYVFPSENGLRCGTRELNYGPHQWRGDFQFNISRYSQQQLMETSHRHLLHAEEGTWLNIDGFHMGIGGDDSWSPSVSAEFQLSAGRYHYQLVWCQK

[14] = molecular target: Peroxisome proliferator-activated receptor gamma/Nuclear receptor coactivator 1 (Homo sapiens, UniProt P37231); test: (§1) TR-FRET dose response biochemical High Throughput Screening assay for agonists of the steroid receptor coactivator 1 (SRC-1) recruitment by the peroxisome proliferator-activated receptor gamma (PPAR gamma): non-selective agonists. [Related pubchem assays (depositor defined):AID1300, AID1808, AID504735, AID631]; type: protein assay
[15] = molecular target: T2, Delta-type opioid receptor (Homo sapiens, UniProt P41143); test: HTS Image-Based Screen for Antagonists of the DOR Receptor. [Related pubchem assays (depositor defined):AID1777, AID1785, AID1786, AID2133]; type: functional
T2 sequence (P41143 whole entry): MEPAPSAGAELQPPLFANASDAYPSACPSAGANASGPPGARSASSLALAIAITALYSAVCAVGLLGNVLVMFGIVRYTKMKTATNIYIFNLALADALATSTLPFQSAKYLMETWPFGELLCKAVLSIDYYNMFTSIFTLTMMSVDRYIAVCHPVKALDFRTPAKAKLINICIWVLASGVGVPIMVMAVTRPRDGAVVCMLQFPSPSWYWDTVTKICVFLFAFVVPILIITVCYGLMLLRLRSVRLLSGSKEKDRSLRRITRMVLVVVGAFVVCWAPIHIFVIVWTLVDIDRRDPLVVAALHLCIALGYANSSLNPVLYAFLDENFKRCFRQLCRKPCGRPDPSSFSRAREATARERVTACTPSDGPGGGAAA

[16] = molecular target: Sphingosine 1-phosphate receptor 4 (Homo sapiens, UniProt O95977); test: Fluorescence dose response cell-based high throughput screening assay for antagonists of the Sphingosine 1-Phosphate Receptor 4 (S1P4). [Related pubchem assays: 1524 (Confirmation in triplicates.), 1510 (Primary screen.)]; type: functional
Chain of Sphingosine 1-phosphate receptor 4 (O95977 whole entry): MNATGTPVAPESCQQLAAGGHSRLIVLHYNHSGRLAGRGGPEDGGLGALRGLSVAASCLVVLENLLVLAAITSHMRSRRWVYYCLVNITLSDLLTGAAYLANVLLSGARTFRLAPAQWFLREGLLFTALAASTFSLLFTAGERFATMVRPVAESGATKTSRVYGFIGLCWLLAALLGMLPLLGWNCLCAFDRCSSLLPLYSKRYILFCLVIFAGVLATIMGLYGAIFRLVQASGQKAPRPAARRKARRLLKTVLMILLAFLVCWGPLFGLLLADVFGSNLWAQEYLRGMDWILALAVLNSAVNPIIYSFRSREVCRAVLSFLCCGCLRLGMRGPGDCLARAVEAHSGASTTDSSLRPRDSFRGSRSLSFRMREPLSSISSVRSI

[17] = molecular target: T3, Replicative DNA helicase DnaB (Mycobacterium tuberculosis, UniProt P9WMR3); test: DnaB intein splicing inhibitors, dose response, biochemical, cell-free fluorescence (AID 449749); type: functional
T3 sequence (P9WMR3 whole entry): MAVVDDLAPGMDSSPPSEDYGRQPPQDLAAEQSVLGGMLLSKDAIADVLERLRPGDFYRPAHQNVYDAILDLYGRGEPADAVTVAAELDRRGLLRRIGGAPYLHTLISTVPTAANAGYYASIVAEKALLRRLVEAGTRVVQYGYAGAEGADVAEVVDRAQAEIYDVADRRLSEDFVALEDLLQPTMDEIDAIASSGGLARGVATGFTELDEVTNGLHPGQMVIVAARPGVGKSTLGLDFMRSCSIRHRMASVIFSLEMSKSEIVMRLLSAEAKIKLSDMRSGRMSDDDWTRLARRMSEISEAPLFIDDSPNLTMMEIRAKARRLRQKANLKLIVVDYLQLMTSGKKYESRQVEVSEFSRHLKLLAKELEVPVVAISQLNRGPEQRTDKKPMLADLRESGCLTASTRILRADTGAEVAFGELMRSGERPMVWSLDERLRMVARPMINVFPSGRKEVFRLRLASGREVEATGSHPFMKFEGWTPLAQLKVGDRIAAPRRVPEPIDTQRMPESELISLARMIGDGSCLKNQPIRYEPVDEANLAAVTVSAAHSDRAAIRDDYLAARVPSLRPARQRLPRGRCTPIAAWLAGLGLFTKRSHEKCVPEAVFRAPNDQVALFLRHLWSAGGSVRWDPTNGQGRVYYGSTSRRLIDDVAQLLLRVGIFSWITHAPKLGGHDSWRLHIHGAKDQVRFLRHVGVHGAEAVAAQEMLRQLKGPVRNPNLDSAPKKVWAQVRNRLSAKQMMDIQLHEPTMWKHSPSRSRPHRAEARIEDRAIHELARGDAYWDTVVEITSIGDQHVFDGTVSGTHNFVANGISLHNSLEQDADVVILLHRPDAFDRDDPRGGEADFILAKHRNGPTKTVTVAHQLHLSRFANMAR

Protein RecA = molecular target: T4, Protein RecA (Mycobacterium tuberculosis, UniProt P9WHJ3); test: Fluorescence Cell-Free Homogeneous Dose Retest to Identify Inhibitors of RecA-Intein Splicing Activity. [Related pubchem assays (depositor defined):AID2097, AID2223, AID489010, AID492950]; type: functional
T4 sequence (P9WHJ3 whole entry): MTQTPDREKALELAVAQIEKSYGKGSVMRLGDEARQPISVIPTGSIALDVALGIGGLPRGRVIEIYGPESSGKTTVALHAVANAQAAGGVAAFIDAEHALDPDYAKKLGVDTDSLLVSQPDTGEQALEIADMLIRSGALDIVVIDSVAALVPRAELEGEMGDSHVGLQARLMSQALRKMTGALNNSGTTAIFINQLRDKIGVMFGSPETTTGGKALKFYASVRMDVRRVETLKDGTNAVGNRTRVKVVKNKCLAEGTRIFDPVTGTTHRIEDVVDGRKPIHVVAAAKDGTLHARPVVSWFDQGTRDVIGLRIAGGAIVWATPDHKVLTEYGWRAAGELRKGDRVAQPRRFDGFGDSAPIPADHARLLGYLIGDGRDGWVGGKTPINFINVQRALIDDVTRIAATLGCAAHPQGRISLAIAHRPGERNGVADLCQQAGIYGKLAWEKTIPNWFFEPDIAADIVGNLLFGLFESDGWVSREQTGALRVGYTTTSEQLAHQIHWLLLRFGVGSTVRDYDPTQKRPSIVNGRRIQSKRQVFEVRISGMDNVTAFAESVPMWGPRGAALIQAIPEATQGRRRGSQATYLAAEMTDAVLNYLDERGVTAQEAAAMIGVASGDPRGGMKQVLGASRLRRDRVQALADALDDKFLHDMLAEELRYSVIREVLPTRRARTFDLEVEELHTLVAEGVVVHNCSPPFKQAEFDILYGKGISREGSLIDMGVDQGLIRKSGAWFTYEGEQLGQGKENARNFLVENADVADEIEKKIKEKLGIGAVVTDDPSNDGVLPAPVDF

Mu-type opioid receptor = Mu-type opioid receptor (Homo sapiens, UniProt P35372); test: HTS Image-Based Screen for Agonists of the MOR Receptor. [Related pubchem assays (depositor defined):AID1777, AID1785, AID1786, AID2133]; type: functional;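 further: imaging of beta-arrestin GFP recruitment into spots after receptor activation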
Chain of Mu-type opioid receptor (P35372 whole entry): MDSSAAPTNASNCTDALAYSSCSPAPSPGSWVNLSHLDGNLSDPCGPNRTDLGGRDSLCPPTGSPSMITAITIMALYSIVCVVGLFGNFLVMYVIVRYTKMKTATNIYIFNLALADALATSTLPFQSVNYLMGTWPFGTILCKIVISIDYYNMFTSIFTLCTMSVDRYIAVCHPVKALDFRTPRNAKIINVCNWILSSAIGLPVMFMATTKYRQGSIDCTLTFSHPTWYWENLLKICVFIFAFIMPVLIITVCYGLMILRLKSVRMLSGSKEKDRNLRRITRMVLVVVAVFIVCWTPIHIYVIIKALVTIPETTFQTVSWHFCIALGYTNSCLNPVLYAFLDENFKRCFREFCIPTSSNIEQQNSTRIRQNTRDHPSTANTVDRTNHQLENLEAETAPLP

[18] = Vero cell cytotoxicity, dose response, cytotoxicity control for Vif-APOBEC3G degradation inhibitor project, Vero cells (AID 1117358); type: functional; details: Human immunodeficiency virus 1, Vero
[19] = microbe, parasite or virus in culture; type: functional; details: Mycobacterium tuberculosis
[20] = molecular target: T5, Kappa-type opioid receptor (Homo sapiens, UniProt P41145); type: functional
T5 sequence (P41145 whole entry): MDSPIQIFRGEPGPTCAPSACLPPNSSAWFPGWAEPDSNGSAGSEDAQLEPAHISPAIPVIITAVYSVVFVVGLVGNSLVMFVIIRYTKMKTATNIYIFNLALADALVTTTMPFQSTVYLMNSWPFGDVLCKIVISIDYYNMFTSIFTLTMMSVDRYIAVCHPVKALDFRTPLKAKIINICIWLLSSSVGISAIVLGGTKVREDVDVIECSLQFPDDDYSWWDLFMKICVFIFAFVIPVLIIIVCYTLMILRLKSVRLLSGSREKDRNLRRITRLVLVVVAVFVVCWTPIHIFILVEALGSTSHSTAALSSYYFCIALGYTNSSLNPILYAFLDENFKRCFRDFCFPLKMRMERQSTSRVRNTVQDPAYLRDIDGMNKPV

[21] = molecular target: Peroxisome proliferator-activated receptor gamma/Nuclear receptor coactivator 3 (Homo sapiens, UniProt P37231); test: as §1, with “3 (SRC-3)” for “1 (SRC-1)”, “assays: 1301 (Confirmation screen.), 1048 (Primary screen.)]” for “assays (depositor defined):AID1300, AID1808, AID504735, AID631]”; type: functional
[22] = molecular target: T2, Delta-type opioid receptor; test: HTS Image-Based Screen for Agonists of the DOR Receptor. [Related pubchem assays (depositor defined):AID1777, AID1786, AID2133]; type: functional
[23] = molecular target: G-protein coupled receptor 55 (Homo sapiens, UniProt Q9Y2T6); test: GPR55 antagonists blocking LPI-driven arrestin recruitment, primary screen, imaging, U2OS, beta-arrestin-GFP, LPI agonist (AID 2013); type: functional;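 further: antagonist potency measured as reduced agonist-driven arrestin aggregation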
Chain of G-protein coupled receptor 55 (Q9Y2T6 whole entry): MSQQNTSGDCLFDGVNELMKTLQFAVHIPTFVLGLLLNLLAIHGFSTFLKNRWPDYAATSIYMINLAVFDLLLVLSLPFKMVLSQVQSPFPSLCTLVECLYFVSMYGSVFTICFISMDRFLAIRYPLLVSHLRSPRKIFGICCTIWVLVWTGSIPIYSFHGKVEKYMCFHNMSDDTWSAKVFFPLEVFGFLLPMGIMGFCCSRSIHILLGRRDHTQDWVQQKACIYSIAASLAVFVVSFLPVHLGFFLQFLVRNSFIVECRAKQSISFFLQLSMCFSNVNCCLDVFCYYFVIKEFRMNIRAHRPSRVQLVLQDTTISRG

[24] = molecular target: T5, Kappa-type opioid receptor; type: functional; remark: listed apart in the source
[25] = molecular target: Peroxisome proliferator-activated receptor gamma/Nuclear receptor coactivator 2 (Homo sapiens, UniProt P37231); test: TR-FRET dose response biochemical High Throughput Screening assay for agonists of the steroid receptor coactivator 2 (SRC-2) recruitment by the peroxisome proliferator-activated receptor gamma (PPAR gamma): non-selective agonists. [Related pubchem assays: 1297, 1032 ]; type: functional

CC(=O)OC(C)(C)/C=C/C(=O)C(C)(O)C1[C@H](O)C[C@@]2(C)C3CC=C4C(CC[C@@H](O)C4(C)C)[C@]3(CO)C(=O)C[C@]12C (stereo not given in full)
EC50 [1]: 8.65 µM (active)
EC50 [2]: < 0.1 µM (active)
EC50 [3]: < 0.1 µM (active)
AC50 (Paired box protein Pax-8): < 0.26 µM (active)
EC50 (cells [4]): 0.08 µM (active)
EC50 [5]: < 0.1 µM (active)
EC50 [6]: 0.083 µM (active)
EC50 [7]: 0.082 µM (active)
EC50 [8]: 0.33 µM (active)

CCOC1Cc2ccccc2N(C(N)=O)c2ccccc21 (stereo not given)
EC50 [9]: > 100 µM (not active)

CCc1c(C(=O)O)[nH]c2ccc(Br)cc12
IC50 (cells [10]): > 138 µM (inactive)
AC50 (Cytochrome P450 2C19): 11.2 µM (inconclusive)
IC50 (Major prion protein): 5.95 µM (active)
IC50 [11]: 7.33 µM (active)
IC50 [12]: 6.41 µM (active)

O=C(OCn1ncc(Br)c(Br)c1=O)c1ccc(F)cc1
AC50 (INS1): 4.94 µM (active)
IC50 [13]: 13.6 µM (not active)
EC50 (Beta-galactosidase): > 31.5 µM (inactive)
EC50 [14]: > 79.4 µM (inactive)
IC50 [15]: 10.3 µM (inactive)
EC50 [2]: 5.79 µM (active)
IC50 [16]: 1.66 µM (active)
AC50 [17]: 2.02 µM (active)
EC50 (Protein RecA): 0.473 µM (active)
EC50 (Mu-type opioid receptor): > 32 µM (inactive)
EC50 [3]: > 120 µM (not active)
CC50 [18]: 8.69 µM (active)
CC50 [19]: 9.1 µM (active)
IC50 [20]: 6.83 µM
EC50 [21]: > 79.4 µM (not active)
EC50 [5]: > 120 µM (not active)
EC50 [22]: > 32 µM (inactive)
IC50 [23]: 5.05 µM (active)
IC50 [24]: 18.8 µM (active)
EC50 [25]: 72.3 µM (not active)

From ChEMBL document CHEMBL1201862, “PubChem BioAssay data set” (2004)
